Patent publication US20020013282A1, “CATIONIC AMPHIPILE COMPOSITIONS FOR INTERACELLUAR DELIVERY OF THERAPEUTIC MOLECULES” (priority 1995, published 2002)

How the values were obtained:
lungs of balb/c mice = test system: lungs of balb/c mice
Description: This assay was used to assess the ability of the cationic amphiphiles of the invention to transfect cells in vivo from live specimens. In the assay, the lungs of balb/c mice were instilled intra-nasally (the procedure can also be performed trans-tracheally) with 100 μl of cationic amphiphile: DNA complex, which was allowed to form during a 15-minute period prior to administration according to the following procedure. The amphiphile (premixed with co-lipid, see below) was hydrated in water for 10 minutes, a period sufficient to yield a suspension at twice the final concentration required. This was vortexed for two minutes and aliquoted to provide 55 microliter quantities for each mouse to be instilled. Similarly, DNA encoding the reporter (CAT) gene was diluted with water to a concentration twice the required final concentration, and then aliquoted at 55 microliters for each mouse to be instilled. The lipid was gently combined with the DNA (in a polystyrene tube), and the complex allowed to form for 15 minutes before the mice were instilled therewith.
The plasmid used (pCMVHI-CAT, see Example 4) provides an encoding DNA for chloramphenicol transferase enzyme. Specifics on the amphiphile: DNA complexes are provided below.
Two days following transfection, mice were sacrificed, and the lungs and trachea removed, weighed, and homogenized in a buffer solution (250 mM Tris, pH 7.8, 5 mM EDTA). The homogenate was clarified by centrifugation, and the deacetylases therein were inactivated by heat treatment at 70° C. for 10 minutes. Lysate was incubated overnight with acetyl coenzyme A and C^14-chloramphenicol. CAT enzyme activity was then visualized by thin layer chromatography (“TLC”) following an ethyl acetate extraction.
The presence of the enzyme CAT will cause an acetyl group to be transferred from acetylcoenzyme A to C^14-chloramphenicol. The acetylated/radiolabeled chloramphenicol migrates faster on a TLC plate and thus its presence can be detected.
With respect to the comparison provided by FIG. 10, the following conditions are of note. The transfection solution for spermidine cholesterol carbamate contained 6 mM DNA measured as concentration of nucleotide, and 1.5 mM of cationic amphiphile. […] For transfection with DC-chol, the molar ratio of DC-chol to DOPE was 3:2, and the concentrations of cationic amphiphile and of DNA (as nucleotide) were 1.3 mM and 0.9 mM, respectively. For transfection with DMRIE, the molar ratio of DMRIE to DOPE was 1:1 and the concentrations of cationic amphiphile and of DNA were 1.7 mM and 1.2 mM, respectively.
Additional experiments were performed to compare in vivo the transfection efficiency of cationic amphiphiles depicted in FIGS. 1, 5 and 7. […] The compounds were administered intra-nasally using between 12 and 15 mice per compound. As in part A above, ng CAT activity was measured per 100 mg of tissue. […] Construction of pCF1/CAT and pCF2/CAT is described below in Example 4.
The in vivo data reported in FIGS. 13, 14 and 15 were compiled generally as follows. As aforementioned, FIGS. 10 and 11 report data from the complete in vivo optimization of amphiphile No. 53. Amphiphile No. 67 was subjected to a similar partial optimization. With respect to all of the other cationic amphiphiles reported on, and taking advantage of numerous structural similarities, optimized compositions for in vivo testing were extrapolated from in vitro results.

[1] = Transacylation reaction of amphiphile with co-lipid DOPE on co-storage; type: physicochemical
Description: Although heretofore unrecognized in the art, it has been determined also that certain co-lipids may react chemically with certain types of cationic amphiphiles under conditions of co-storage, there resulting new molecular species. Generation of such new species is believed to occur via mechanisms such as transacylation. In this regard, see FIG. 4 which depicts a transacylation reaction involving spermidine cholesterol carbamate(No.67) and DOPE, there resulting lyso PE species and multiple forms of particular acyl-cationic amphiphile (designated No. 80).
With respect to such reactions, the following remarks are of interest. […] It is expected that these phenomena would also apply to lyophilized amphiphile/DOPE preparations.
Accordingly, it is highly preferred to maintain such amphiphile/DOPE preparations at very cold temperatures, such as −70 degrees C.

[2] = Transgene expression by protonation state of the amphiphile in transfecting composition with DOPE; conditions: for transgene expression activity: with DOPE
Description: With respect to amphiphile No. 67 (spermidine cholesterol carbamate), it has been observed that when providing this amphiphile for a transfecting composition with DOPE (itself provided as a zwitterion), transgene expression was best for the free base, but decreased if the amphiphile was prepared as an acetate salt. […] Under the circumstances described, the plasmid DNA provided for contacting with the amphiphile was prepared (without buffer) as a sodium salt in water.

[3] = test system: CFT-1 cell line (human cystic fibrosis bronchial epithelial cells); assay: Cell transfection assay (β-galactosidase expression from pCMVβ); type: cell-based; conditions: amphiphile:DOPE 1:1, CFT-1 cells
[4] = test system: Immortalized human cystic fibrosis airway cells (CFT-1); assay: SPQ assay of cAMP-stimulated Cl− channel activity after transfection with pCMV-CFTR; type: cell-based; conditions: amphiphile:DOPE 1:1, 10.5 μmolar each, 30 μmolar pCMV-CFTR; 48 hours after transfection
Description: Immortalized human cystic fibrosis airway cells (CFT-1, as above) were used.
In preparation for the assay, the cells were grown on glass coverslips until approximately 60% confluent. The cells were then transfected with a complex of spermidine cholesterol carbamate: DOPE (1:1) and a plasmid(pCMV-CFTR) containing a cDNA that encodes wild type human CFTR. pCMV-CFTR plasmid is a construct containing the encoding sequence for CFTR and the following regulatory elements, a CMV promoter and enhancer, and an SV40 polyadenylation signal. Additional constructs suitable for the practice of this example include pMT-CFTR, Cheng et al., Cell. 63, 827-834 (1990). The complex used was 10.5 μmolar of spermidine cholesterol carbamate (also of DOPE) and 30 μmolar of pCMV-CFTR based on nucleotide.
48 hours after amphiphile-mediated transfection, cells were tested for cAMP-stimulated Cl^−channel activity using the 6methoxy-N-(3-sulfopropyl)quinolinium (“SPQ”) assay. […] In the assay, cAMP-dependent Cl^−channel activity was assessed using “SPQ” (from Molecular Probes, Eugene, Oreg.), a halide-sensitive fluorophore. Increases in halide permeability results in a more rapid increase in SPQ fluorescence, and the rate of change (rather than the absolute change in fluorescence) is the important variable in assessing Cl^−permeability. […]

BALB/c mouse = assay: Intravenous delivery of CAT reporter transgene, organ targeting (lung, heart); type: in vivo
Description: The reporter plasmid pCF-1 CAT (Example 4) was used and was purified to minimize endotoxin (<1 EU/mg pDNA), and also chromosomal DNA contamination (<2%). Amphiphile No. 53 (1:1 with DOPE)/DNA complex was prepared according to the procedures of Example 3. The amphiphile was provided as the free base, the plasmid was prepared as a sodium salt in water, and the DOPE was provided in zwitterionic form.
The animal model was the BALB/c mouse. Females 6-8 weeks old weighing 16-18 g were injected intravenously using the tail vein, using 5 animals per group. The volume of lipid: pDNA complex used was 100 μl in all experiments. Unless noted otherwise, mice were sacrificed 48 h following administration of the complex. Organs were frozen immediately on dry ice to store for subsequent analysis.
Expression of chloramphenicol acetyl transferase (CAT) was quantitated using a radiochemical assay for CAT enzymatic activity. Organs were weighed and homogenized on ice in a lysis buffer containing protease inhibitors. The lysate was freeze-thawed 3X, centrifuged, and heated to 65° C. to inactivate deacetylases before adding it to a reaction mixture containing ^14C-chloramphenicol. […] Spots corresponding to the acylated reaction products were quantitated (Betagen) and converted to ng CAT activity using authentic CAT standards. […]

[5] = Zeta potential of amphiphile/DNA complex; type: physicochemical; conditions: 1:1 with DOPE
Description: Zeta potentials of the samples can be measured (using typically 5 measurements per sample) employing a Malvern Zetasizer 4 (Malvern Instruments, Southborough, Mass.) and a zeta cell (AZ-104 cell, Malvern Instruments Co.). Dried lipid films containing the cationic lipid and DOPE are hydrated in distilled water (dH2O). DNA typically should be diluted to a concentration of about 300 μM in dH2O. The DNA solution (1.5 mL) can then be added to an equal volume of cationic lipid vesicles and incubated at room temperature for 10 min. Enough NaCl (for example, 4 mM stock) may be added to result in a final concentration of 1 mM NaCl. If necessary, the sample can be diluted further with 1 mM NaCl (to maintain a photomultiplier signal below 4000 counts per second), and distilled water can be used in place of the NaCl solutions.

[6] = 0.6 mM amphiphile, 0.6 or 1.2 mM DOPE, 3.6 mM plasmid DNA
[7] = 1.0-1.5 mM amphiphile, cholesterol 1:1, DNA 4.0-6.0 mM, pCMVHI-CAT, intra-nasal

CC(C)CCCC(C)C1CCC2C3CC=C4CC(OC(=O)NCCCNCCCCN)CCC4(C)C3CCC12C (centres unmarked) [amphiphile No. 37, N^1-spermidine cholesteryl carbamate]
improvement in reporter gene expression, free base form versus fully protonated hydrochloride salt (lungs of balb/c mice; [6]): ~50 fold
reporter gene expression, free base form compared to fully protonated hydrochloride salt (lungs of balb/c mice; [6]): dramatically increased

CC(C)CCCC(C)C1CCC2C3CC=C4CC(OC(=O)N(CCCN)CCCCNCCCN)CCC4(C)C3CCC12C (centres unmarked) [amphiphile No. 67]
transfection enhancement in relation to N^1-thermospermine cholesteryl carbamate and N^1-spermidine cholesteryl carbamate (lungs of balb/c mice; 4 mM DNA (as nucleotide), 1 mM amphiphile, 2 mM co-lipid, procedures of Example 3 part B): at least 30 fold
transacylation with DOPE ([1]; amphiphile and co-lipid dried down to a thin film from chloroform): transacylation also occurs
transacylation with DOPE ([1]; amphiphile prepared as mono, di, or tri acetate salt): slow transacylations
transacylation with DOPE ([1]; mixture of amphiphile and DOPE in chloroform solvent): does not appear to participate in such reactions
transgene expression ([2]; amphiphile as free base, with DOPE (zwitterion)): best
transgene expression activity ([2]; amphiphile as mono and di acetate salts): decreased step-wise
transgene expression activity ([2]; amphiphile as tri-acetate salt): minimal

CC(C)CCCC(C)C1CCC2C3CC=C4CC(OC(=O)N(CCCN)CCCCN)CCC4(C)C3CCC12C (centres unmarked) [amphiphile No. 53, N^4-spermidine cholesteryl carbamate]
transfection efficiency (β-galactosidase expression) improved by a factor, relative to DMRIE:DOPE (1:1) [3]: about 5
cells exhibiting measurable cAMP-stimulated Cl− channel activity [4]: Approximately 60%
enhancement of in vivo transfection (ng CAT activity per 100 mg tissue) in relation to DMRIE and DC-Chol (lungs of balb/c mice; 1.5 mM amphiphile, 1:1 DOPE, 6 mM DNA (pCMVHI-CAT), intra-nasal, 2 days): ≥ 20 fold
transfection enhancement in relation to N^1-spermidine cholesteryl carbamate (lungs of balb/c mice; 6 mM DNA (as nucleotide), 1.5 mM amphiphile, 1.5 mM co-lipid, procedures of Example 3 part B): about 30 fold
transfection efficiency (ng CAT/100 mg tissue) with cholesterol as co-lipid compared with DOPE as co-lipid (lungs of balb/c mice; [7]): less effective
transfection with cholesterol as co-lipid compared with DC-Chol/DOPE (lungs of balb/c mice; [7]): substantially more effective
toxicity to the target cells (lungs of balb/c mice; about 0.75 mM amphiphile, 3.0 mM plasmid, versus 1.5 mM / 6 mM): less toxic
organ distribution of CAT expression (BALB/c mouse; amphiphile/DNA molar ratio less than about 0.5, DNA 0.9 mM): strongly weighted toward the lung
organ distribution of CAT expression (BALB/c mouse; amphiphile/DNA ratio 1.25, DNA 0.9 mM): substantial expression was found in the heart
zeta potential of the complex ([5]; amphiphile/DNA molar ratio less than about 0.5): about −30 mV
zeta potential of the complex ([5]; amphiphile/DNA ratio of 1.25): about +30 mV
